Experimental data as given in patent US20250034139A1, “AMINE COMPOUNDS HAVING ANTI-INFLAMMATORY, ANTIFUNGAL, ANTIPARASITIC, AND ANTICANCER ACTIVITY” (PHARMA CINQ, LLC, priority 2013, published 2025).
≈ marks a conversion by molar mass, not a printed value. Where two headings read alike, the source gives them in different places.

What was measured:
[1] = system: imiquimod-induced dermatitis
Experimental: Topical imiquimod (IMQ), a toll-like receptor agonist, has been established as a model of Inflammatory skin diseases including psoriasis and atopic dermatitis. Dermal inflammatory changes and gene expression in mice treated with topical imiquimod mimic human psoriasis and dermatitis (van der Fits et al., 2009; Swindell et al., 2011). The effect of a set of compounds of the invention were tested in a mouse model of imiquimod-induced dermatitis, with topical tacrolimus and dexamethasone as comparators for assessing safety and efficacy relative to standard agents used to treat dermatitis in humans.
Commercial 0.1% tacrolimus ointment (ProTopic™[…]) was also used as an active comparator. Petrolatum containing 10% ethanol was used as a control treatment.
Female Balb/C mice (8 weeks old) were randomized and divided into groups of 5 animals each. Polyethylene collars were affixed to the mice to prevent them from easily scratching their ears. 5% imiquimod was applied to both ears of each mouse (20 microliters per ear) daily for 5 days, and then every other day for the full duration of the study. […] On day 7 after initiation of imiquimod, treatment with topical agents was started. Both ears of each mouse were treated with test ointments, with one compound per mouse.
Ear thickness and PASI assessments (Psoriasis Area and Severity Index, a standard psoriasis scoring system) were recorded twice per week throughout the study. The PASI score comprises the sum of evaluations of swelling, erythema and scaling on scales from 0 to 4; the maximum PASI score is 12, and the minimum, in unaffected skin, is 0).

[2] = system: Cryptococcus neoformans (serotype A); assay: Example L: Cryptococcus neoformans (serotype A) growth inhibition; assay type: cell-based; conditions: Cryptococcus neoformans; for MIC: read-out: MIC, uM (concentration for maximum - 99% of inhibition)
Experimental: Cryptococcus neoformans (serotype A) were plated in 96 well plates with 144 μl/well of 5×10e5 CFU/ml in YPD growth medium. Diluted compounds were then added to each well with concentration ranged from 0.05 to 10 μM as final concentration in duplicates. The plates were inoculated at 30° C. Two readings of OD at 600 nm were measured after 18 hr and […] treatments.
C12-imidazol had relative weak activity against Cryptococcus serotype A at low concentration. Data plotted was based on 26 hour reading because 18 hour reading was too low.
• 1. Pick a single colony of Cryptococcus from the Sabouraud Dextrose agar plate using the inoculum loop and inoculate into a 125 ml flask containing 25 ml of YPD growth medium • 2. Incubate at 30° C. with shaking at 220 rpm for 24 hours with loosen lid to allow air in and facilitates growth. • 3. Examine an aliquot of the culture under a microscope for yeast cell morphology and lack of bacterial contamination. • 4. Dilute the overnight culture with YPD medium at 1:100 dilution and count the number of cells as 8×10^6 cfu/ml. • 5. Make a final concentration of cells suspension at 5×10^5 cfu/ml in YPD medium after the stock culture had been stored at 4° C. for 3 days. • 6. Plate 144 μl/well of 5×10^5 cfu/ml cell suspension on 96-well plates. Part-II: Cryptococcus Growth Inhibition Testing with Compounds • 1. From 10 mM DMSO stock solutions, make serial dilutions of compounds to 0.0013, 0.0025, 0.0125, 0.025, 0.05, 0.125 and 0.25 mM solution • 2. Add 6 ul each of diluted compound solutions per well in duplicates. The final concentrations were 0, 0.05, 0.1, 0.5, 1.0, 2.0, 5.0 and 10 micromolar. • 3. Incubated all plates at 30° C. overnight with 175 rpm shaking. • 4. Read absorbance at OD600 after 18 and 26 hours for each plate. • 5. Calculated the % inhibition and IC50 of each compound against the untreated cell.

[3] = system: Cryptococcus neoformans strains; assay: Example N: MIC and MFC (CLSI) against Cryptococcus neoformans; assay type: cell-based; design: MIC at 50% inhibition: unit not given here; conditions: for MIC / MFC: Cryptococcus neoformans, three clinical strains; for MIC: read-out: MIC 100%, Range, incubated for 72 hrs
Experimental: (§1) The objective of this study was to determine the antifungal activity of eight experimental compounds against a representative panel of fungal isolates, including Candida albicans, C. glabrata, Cryptococcus neoformans, Trichophyton rubrum, Aspergillus fumigatus, and Rhizopus spp. Antifungal activity was measured by minimum inhibitory concentration (MIC) and minimum fungicidal concentration (MFC).
(§2) Three recent clinical strains of each species, taken from the culture collection at the Center for Medical Mycology, Case Western University, were tested.
(§3) Compounds in powder form were dissolved in DMSO. Serial dilutions of each compound were then prepared in RPMI-1640 in a range of […].
(§4) MIC testing was performed according to the CLSI M27-A3 and M38-A2 standards for the susceptibility testing of yeasts and filamentous fungi, respectively (1, 2). Test isolates were subcultured from frozen slants onto potato dextrose agar plates (Trichophyton rubrum was subcultured onto oatmeal plates for conidia production) and checked for purity. Inocula were then prepared in RPMI-1640 (YNB for Cryptococcus) to a concentration of 0.5-2.5×10^3 colony-forming units (CFU)/ml or 0.4-5×10^4 conidia/ml for yeast and filamentous fungi, respectively.
(§5) MFC determinations were performed according to the modifications previously described by Canton et al. and Ghannoum and Isham. (3, 4) Specifically, the total contents of each clear well from the MIC assay were subcultured onto potato dextrose agar. To avoid antifungal carryover, the aliquots were allowed to soak into the agar and then were streaked for isolation once dry, thus removing the cells from the drug source.

[4] = system: Aspergillus fumigatus strains; assay: Example N: MIC and MFC (CLSI) against Aspergillus fumigatus; assay type: cell-based; conditions: for cidal activity (MFC within 4 dilutions of the MIC), in words: 3 strains; for MIC50 / MIC: Aspergillus fumigatus; for MIC: read-out: MIC 100%; for MFC: range over Aspergillus fumigatus strains, in 48 hr
Experimental: as §1, §2, §3, §4, §5

Candida albicans strains = assay: Example N: MIC and MFC (CLSI) against Candida albicans; assay type: cell-based; conditions: Candida albicans, three clinical strains; for MIC: read-out: MIC 100%, Range
Experimental: as §1, §2, §3, §4, §5

Rhizopus strains = assay: Example N: MIC and MFC (CLSI) against Rhizopus; assay type: cell-based, Rhizopus spp.; conditions: for MIC50 / MIC: Rhizopus; for MIC: read-out: MIC 100%; for MFC: range over Rhizopus strains, in 48 hr
Experimental: as §1, §2, §3, §4, §5

Candida glabrata strains = assay: Example N: MIC and MFC (CLSI) against Candida glabrata; assay type: cell-based; conditions: for MIC50 / MIC / MFC: Nakaseomyces glabratus; for MIC: read-out: MIC 100%; for MFC: range over Candida glabrata strains, in 48 hr
Experimental: as §1, §2, §3, §4, §5

[5] = Macrophage, direct inhibition, values of the earlier study (Table 25), read-out: IC50 value (μM) for inhibition of fungal growth, No macrophages
[6] = read-out: IC50, uM (concentration for 50% of inhibition), OD of 26 hour reading, 30° C., XLfit
[7] = OD of 26 hour reading, 30° C., XLfit

| SMILES | IC50 [2, 6] | MIC [2, 7] | MIC [3] | MFC [3] | MIC50 ([4]; 24 h) | MIC ([4]; 24 h) | MIC50 ([4]; 48 h) | MIC ([4]; 48 h) | MIC (Candida albicans strains; 24 hr) | MIC (Candida albicans strains; 48 hr) | MFC (Candida albicans strains; 48 hr) | MIC50 (Rhizopus strains; 24 h) | MIC (Rhizopus strains; 24 h) | MIC50 (Rhizopus strains; 48 h) | MIC (Rhizopus strains; 48 h) | MIC50 (Candida glabrata strains; 24 h) | MIC (Candida glabrata strains; 24 h) | MIC50 (Candida glabrata strains; 48 h) | MIC (Candida glabrata strains; 48 h) | MFC (Candida glabrata strains) | other results |
| --- | --- | --- | --- | --- | --- | --- | --- | --- | --- | --- | --- | --- | --- | --- | --- | --- | --- | --- | --- | --- | --- |
| c1ccc(Oc2cccc(CNc3ncnc4ccccc34)c2)cc1 [BM, N-(3-Phenoxybenzyl)quinazolin-4-amine] | 0.69 µM | 17.5 µM (≈ 5.73 µg/mL) |  |  |  |  |  |  |  |  |  |  |  |  |  |  |  |  |  |  | Ear thickness, Mean ± SEM ([1]; imiquimod-treated mice, topical ointment 0.06% active drug (dexamethasone 0.03%, tacrolimus 0.1%)): 0.577 ± 0.019; Body Weight (mean ± SEM), Final ([1]; mouse, in vivo): 20.9 ± 0.6 g; Body Weight (mean ± SEM), Initial ([1]; mouse, in vivo): 20.8 ± 0.7 g; D BW (g) ([1]; mouse, in vivo): +0.1 g; PASI Score, Mean ± SEM ([1]; scale 0-12, topical ointment 0.06% active drug (dexamethasone 0.03%, tacrolimus 0.1%)): 9.250 ± 0.183; IC50 [2, 5]: 0.69 µM |
| CCCCCCCCCCNc1ccnc2ccccc12 [Compound AG, N-(Decyl)quinolin-4-amine] | 2.14 µM | 11.4 µM (≈ 3.23 µg/mL) | 4 µg/mL (≈ 14.1 µM) | 8 to 16 µg/mL (≈ 28.1 to 56.2 µM) | 0.5 to 1 µg/mL (≈ 1.76 to 3.52 µM) | 1 µg/mL (≈ 3.52 µM) | 1 to 2 µg/mL (≈ 3.52 to 7.03 µM) | 1 to 2 µg/mL (≈ 3.52 to 7.03 µM) | 0.5 to 2 µg/mL (≈ 1.76 to 7.03 µM) | 1 to 4 µg/mL (≈ 3.52 to 14.1 µM) | 2 to 4 µg/mL (≈ 7.03 to 14.1 µM) | 1 to 2 µg/mL (≈ 3.52 to 7.03 µM) | 2 µg/mL (≈ 7.03 µM) | 2 to 4 µg/mL (≈ 7.03 to 14.1 µM) | 2 to 4 µg/mL (≈ 7.03 to 14.1 µM) | 0.25 to 1 µg/mL (≈ 0.879 to 3.52 µM) | 0.5 to 2 µg/mL (≈ 1.76 to 7.03 µM) | 0.5 to 2 µg/mL (≈ 1.76 to 7.03 µM) | 0.5 to 2 µg/mL (≈ 1.76 to 7.03 µM) | 4 µg/mL (≈ 14.1 µM) | cidal activity (MFC within 4 dilutions of the MIC), in words [4]: cidal against one of the A. fumigatus strains (MRL 28397); MFC (Rhizopus strains): 4 to 16 µg/mL (≈ 14.1 to 56.2 µM); cidal activity (MFC within 4 dilutions of the MIC), in words (Candida glabrata strains; 3 strains): cidal against all of the C. glabrata strains tested |
| CCCCCCCCCCNc1ncnc2ccccc12 [Compound AH, N-(Decyl)quinazolin-4-amine] | 0.39 µM | 12 µM (≈ 3.43 µg/mL) | 0.25 to 2 µg/mL (≈ 0.876 to 7.01 µM) | 1 to 2 µg/mL (≈ 3.5 to 7.01 µM) | < 0.12 µg/mL | 0.25 to 0.5 µg/mL (≈ 0.876 to 1.75 µM) | 0.25 to 1 µg/mL (≈ 0.876 to 3.5 µM) | 0.25 to 4 µg/mL (≈ 0.876 to 14 µM) | 0.12 to 4 µg/mL (≈ 0.42 to 14 µM) | 1 to 4 µg/mL (≈ 3.5 to 14 µM) | 4 to 32 µg/mL (≈ 14 to 112 µM) | 0.25 to 0.5 µg/mL (≈ 0.876 to 1.75 µM) | 2 µg/mL (≈ 7.01 µM) | 2 µg/mL (≈ 7.01 µM) | 2 µg/mL (≈ 7.01 µM) | 2 µg/mL (≈ 7.01 µM) | 4 to 8 µg/mL (≈ 14 to 28 µM) | 4 to 8 µg/mL (≈ 14 to 28 µM) | 4 to 8 µg/mL (≈ 14 to 28 µM) | 8 to 64 µg/mL (≈ 28 to 224 µM) | MIC at 50% inhibition [3]: 0.004-2; cidal activity (MFC within 4 dilutions of the MIC), in words ([3]; 3 isolates): cidal against all 3 neoformans isolates; MFC [4]: > 64 µg/mL; IC50 [2, 5]: 0.39 µM; MIC at 100% inhibition (Rhizopus strains; 24 hrs): 2 µg/mL (≈ 7.01 µM); MIC at 50% inhibition (Rhizopus strains; 48 hr): 2 µg/mL (≈ 7.01 µM); MIC at 100% inhibition (Rhizopus strains; 48 hr): 2 µg/mL (≈ 7.01 µM); MFC (Rhizopus strains): 64 µg/mL (≈ 224 µM) |
| CCCCCCOCCCCCCCCCCNc1ccnc2ccccc12 [Compound AL, N-[10-(Hexyloxy)decyl]quinolin-4-amine] | 3.01 µM | 10.5 µM (≈ 4.03 µg/mL) | 2 µg/mL (≈ 5.2 µM) | 2 to 4 µg/mL (≈ 5.2 to 10.4 µM) | 2 µg/mL (≈ 5.2 µM) | 2 µg/mL (≈ 5.2 µM) | 2 to 4 µg/mL (≈ 5.2 to 10.4 µM) | 4 µg/mL (≈ 10.4 µM) | 2 to 4 µg/mL (≈ 5.2 to 10.4 µM) | 2 to 4 µg/mL (≈ 5.2 to 10.4 µM) | 4 to 8 µg/mL (≈ 10.4 to 20.8 µM) | 4 µg/mL (≈ 10.4 µM) | 4 µg/mL (≈ 10.4 µM) | 4 to 8 µg/mL (≈ 10.4 to 20.8 µM) | 8 µg/mL (≈ 20.8 µM) | 2 µg/mL (≈ 5.2 µM) | 2 µg/mL (≈ 5.2 µM) | 2 to 4 µg/mL (≈ 5.2 to 10.4 µM) | 4 µg/mL (≈ 10.4 µM) | 4 µg/mL (≈ 10.4 µM) | cidal activity (MFC within 4 dilutions of the MIC), in words [4]: cidal against one of the A. fumigatus strains (MRL 28397); MFC [4]: 4 to 32 µg/mL (≈ 10.4 to 83.2 µM) |
